Assay [1] relates to pERK. Kind of assay: pERK in doxorubicin-treated A673 tumor cells. The assay is classed as cell-based, human.
In assay [2] the test system is IR and IGF-1R. The assay is described as follows: receptor phosphorylation in doxorubicin-treated A673 tumor cells. The class given is cell-based, human.
For assay [3], the system named is phospho-AKT or phospho-ERK. The assay is described as follows: Western blot, downstream AKT and ERK signaling in tumor cell lines. The class given is cell-based, human. The note with it: OSI-906 3 μM or MAB391 3 μg/ml, 16 hour. As for the experimental part:
(§1) Preparation of Protein Lysates and Western Blotting: Lysates for Western blotting were prepared as previously described (44). Antibodies included: IGF-1R (Santa Cruz), IR (Santa Cruz), phospho-p42/p44 (Cell Signaling Technologies), phospho-Akt (S473) (Cell Signaling Technologies), phospho-Akt (T308) (Cell Signaling Technologies), phosho-S6 (235/236) (Cell Signaling Technologies), phosphor-PRAS40 (Cell Signaling Technologies), and phosphor-IRS-1-Y612 (Biosource).

Assay [4] relates to GEO (CRC) tumors. The assay is described as follows: tumor xenograft anti-tumor efficacy. The assay is classed as in vivo, nu/nu CD-1 mice. The following applies: OSI-906 50 mg/kg once-daily for 14 days; MAB391 every three days for a total of 5 doses. The text has this:
(§2) Animals: Female nu/nu CD-1 mice (6-8 weeks, 22-25 g) were purchased from Charles River Laboratories (Wilmington, Mass.) and maintained in an AAALAC-accredited facility at OSI Pharmaceuticals as described previously (12).
(§3) In vivo anti-tumor efficacy studies: Cells were harvested and implanted s.c. in the right flank of nu/nu CD-1 mice as described previously (12). Tumors were allowed to establish to 200±50 mm^3 in size before randomization into various treatment groups. […] Tumor volumes were determined from caliper measurements using the formula V=(length×width^2)/2. Tumor sizes and body weights were measured twice weekly. Tumor growth inhibition (TGI) was determined at different time points by the following formula: % TGI={1−[(Tt/T0)/(Ct/C0)]/1[C0/Ct}×100, where Tt=median tumor volume of treated at time t, T0=median tumor volume of treated at time 0, Ct=median tumor volume of control at time t, and C0=median tumor volume of control at time 0.

The subject of assay [5] is SK-N-AS (neuroblastoma) tumors. Kind of assay: tumor xenograft anti-tumor efficacy. The class given is in vivo, nu/nu CD-1 mice.
From the text: as §2, §3

In assay [6] the test system is phospho-AKT. Kind of assay: in vivo pharmacodynamic analysis, GEO tumors. On the set-up: species or system nu/nu CD-1 mice. The following applies: GEO model. On the procedure: Tumor samples were collected at specified time points and snap frozen in liquid nitrogen. Tumor lysates were prepared by homogenizing samples in Precellys 24 homogenizer (MO Bio Laboratories, Inc., CA) with tumor lysis buffer (1% Triton X-100, 10% glycerol, 50 mM HEPES (ph 7.4), 150 mM NaCl, 1.5 mM MgCl2, 1 mM EDTA supplemented with fresh protease inhibitor cocktail (Sigma, Mo.), phosphatase inhibitor cocktail (Sigma, Mo.), 10 mM NaF and 1 mM sodium orthovanadate). Tissue homogenates were clarified by centrifugation at 14,000 g for 5 min at 4° C. and supernatants were then analyzed by Western blot or phospho-RTK array as indicated.

Assay [7] relates to phospho-AKT. Kind of assay: phospho-AKT in HT-29 CRC cells with insulin. The assay is classed as cell-based, human. The note with it: HT-29 cells, basal or 5 or 50 μIU/mL insulin. On the procedure:
as §1

For assay [8], the system named is phospho-IRS1^Y612. The assay is described as follows: Western blot, phospho-IRS1 in tumor cell lines. The class given is cell-based, human. The note with it: A673, H322, and H295R tumor cell lines; OSI-906 3 μM or MAB391 3 μg/ml. On the procedure: as §1
On the technique in general: In western blotting, separated proteins are transferred to a membrane and probed.

Assay [9] concerns H460 tumors. Kind of assay: tumor xenograft anti-tumor efficacy. The note with it: after treatment with OSI-906 in vivo for 10-14 days. The arrangement: species or system nu/nu CD-1 mice.
From the text: as §2, §3

For assay [10], the system named is Colo205 tumors. Kind of assay: tumor xenograft anti-tumor efficacy. The arrangement: species or system nu/nu CD-1 mice. The note with it: after treatment with OSI-906 in vivo for 10-14 days.
From the text: as §2, §3

Assay [11] deals with FaDu tumors. The assay is described as follows: tumor xenograft anti-tumor efficacy. The arrangement: species or system nu/nu CD-1 mice. The note with it: after treatment with OSI-906 in vivo for 10-14 days.
From the text: as §2, §3

For assay [12], the system named is H295R tumors. The assay is described as follows: tumor xenograft anti-tumor efficacy. The note with it: after treatment with OSI-906 in vivo for 10-14 days. On the set-up: species or system nu/nu CD-1 mice.
From the text: as §2, §3

The subject of assay [13] is BxPC3 tumors. Kind of assay: tumor xenograft anti-tumor efficacy. The arrangement: species or system nu/nu CD-1 mice. The note with it: after treatment with OSI-906 in vivo for 10-14 days.
From the text: as §2, §3

The target of assay [14] is T1, phospho-IGF-1R (Homo sapiens, UniProt P08069). Kind of assay: receptor phosphorylation in MDAH-2774 cells. On the set-up: endogenous in cells; host or cells: human tumour cell lines (MDAH-2774). The following applies: MDAH-2774 cells alone or with insulin, IGF-1 or IGF-2; OSI-906 3 μM or MAB391 3 μg/ml. The assay is classed as cell-based. As for the experimental part:
as §1
(§4) Analysis of RTK phosphorylation via a proteome array: Proteome Profiler arrays containing capture antibodies for 42 RTKs were from R&D systems (RTK Proteome Profile; R&D Systems, Minneapolis, Minn.) and processed according to manufacturer's protocol. pIGF-1R and pIR were determined by RTK capture array. Proteome profiler arrays housed 42 different RTKs. RTKs included on the array include: HER1, HER2, HER3, HER4, FGFR1, FGFR2a, FGFR3, FGFR4, IR, IGF-1R, Axl, Dtk, Mer, HGFR, MSPR, PDGFRα, PDGFRβ, SCFR, Flt-3, M-CSFR, c-Ret, ROR1, ROR2, Tie-1, Tie-2, TrkA, TrkB, TrkC, VEGFR1, VEGFR2, VEGFR3, MuSK, EphA1, EphA2, EphA3, EphA4, EphA6, EphA7, EphB1, EphB2, EphB4, EphB6. This array was used as an RTK capture assay for determining pIGF-1R and pIR levels. Capture antibodies specific to each RTK are used to bind RTKs in tumor cell extracts. […]

Assay [15] concerns phospho-PRAS40. The assay is described as follows: Western blot, phospho-PRAS40 in H295R cells. The assay is classed as cell-based, human. As for the experimental part: as §1
Assay [16] addresses T1, phospho-IGF-1R. Kind of assay: receptor phosphorylation in HT-29 CRC cells with insulin. The assay is classed as cell-based. The arrangement: endogenous in cells; host or cells: human tumour cell lines (panel of nine; HT-29; MDAH-2774; H322, SK-N-AS, H295R, A673). The following applies: HT-29 cells treated with 5 or 50 μIU/mL insulin; OSI-906 3 μM or MAB391 3 μg/ml, 16 hours. On the procedure: as §1, §4

The target of assay [17] is T1, phospho-IGF-1R. The assay is described as follows: RTK capture array, panel of nine tumor cell lines. The note with it: OSI-906 3 μM or MAB391 3 μg/mL; 16 hours; each cell line tested. The class given is cell-based. The arrangement: endogenous in cells; host or cells: human tumour cell lines (panel of nine; HT-29; MDAH-2774; H322, SK-N-AS, H295R, A673). As for the experimental part:
Analysis of RTK phosphorylation via a proteome array: Proteome Profiler arrays containing capture antibodies for 42 RTKs were from R&D systems (RTK Proteome Profile; R&D Systems, Minneapolis, Minn.) and processed according to manufacturer's protocol. pIGF-1R and pIR were determined by RTK capture array. Proteome profiler arrays housed 42 different RTKs. RTKs included on the array include: HER1, HER2, HER3, HER4, FGFR1, FGFR2a, FGFR3, FGFR4, IR, IGF-1R, Axl, Dtk, Mer, HGFR, MSPR, PDGFRα, PDGFRβ, SCFR, Flt-3, M-CSFR, c-Ret, ROR1, ROR2, Tie-1, Tie-2, TrkA, TrkB, TrkC, VEGFR1, VEGFR2, VEGFR3, MuSK, EphA1, EphA2, EphA3, EphA4, EphA6, EphA7, EphB1, EphB2, EphB4, EphB6. This array was used as an RTK capture assay for determining pIGF-1R and pIR levels. Capture antibodies specific to each RTK are used to bind RTKs in tumor cell extracts. An HRP-conjugated pan anti-phospho-tyrosine antibody is used to specifically detect phosphorylated RTKs.

The subject of assay [18] is MDAH-2774 OvCa tumor cells. Kind of assay: growth inhibition assay (Cell Titer-Glo). The class given is cell-based, human. The source says: Cell Lines and Culture. Human cancer cell lines, were obtained from American Type Culture Collection (ATCC, Manassas, Va.), or the following additional indicated sources, and cultured in media as described. Tumor types are also indicated: H295R (adrenocortical carcinoma; ATCC), NCI-[…], NCI-[…], SW1573 (NSCLC; ATCC), […], BxPC3 (pancreatic; ATCC), OVCAR5 (ovarian; NCI;), MDAH-2774 (ovarian; ATCC), Igrov1 (ovarian; NCI), GEO (colon; Roswell Park Cancer Institute (RPCC)), HT-29 (colon; ATCC), RKO (colon; ATCC), […], 8226 (myeloma; ATCC), H929 (myeloma; ATCC), U266 (myeloma; ATCC), SKES1 (Ewings sarcoma; ATCC), RDES (Ewings sarcoma; ATCC), RD (rhabdomyosarcoma; ATCC), DU4475 (breast; ATCC), SKNAS (neuroblastoma; ATCC), 2650 (nasal SCC; ATCC), OVCAR4 (ovarian; NCI), A673 (Ewings sarcoma; ATCC), BT474 (breast; ATCC), 1386 (oral SCC; MSKCC, NY), 1186 (SCCHN; MSKCC, NY), Colo205 (colon; ATCC), HCT-15 (colon; ATCC), Fadu (oral SCC; ATCC), SKBR3 (breast; ATCC), 1483 (HNSCC; MSKCC, NY), HSC-2 (HNSCC; RIKEN BioResource Center, Tsukuba, Ibaraki, 305-0074, Japan). […] The cells were routinely screened for the presence of mycoplasma (MycoAlert, Cambrex Bio Science, Baltimore, Md.). For growth inhibition assays, cells were plated and allowed to proliferate for 24 hours. […] Cell viability was assayed using the Cell Titer-Glo reagent (Promega Corp., Madison, Wis.).
(In general: In ATP-based viability assays light output follows the ATP content of the culture.)

Assay [19] has as its system broad panel (n=116) of additional RTKs and other protein kinases. The following applies: at 1 μM; cited from earlier work.
Where [20] appears, read: A673 tumor cells, doxorubicin 300 nM.

Molecules are shown by their SMILES.

T1 sequence (P08069 31-1367): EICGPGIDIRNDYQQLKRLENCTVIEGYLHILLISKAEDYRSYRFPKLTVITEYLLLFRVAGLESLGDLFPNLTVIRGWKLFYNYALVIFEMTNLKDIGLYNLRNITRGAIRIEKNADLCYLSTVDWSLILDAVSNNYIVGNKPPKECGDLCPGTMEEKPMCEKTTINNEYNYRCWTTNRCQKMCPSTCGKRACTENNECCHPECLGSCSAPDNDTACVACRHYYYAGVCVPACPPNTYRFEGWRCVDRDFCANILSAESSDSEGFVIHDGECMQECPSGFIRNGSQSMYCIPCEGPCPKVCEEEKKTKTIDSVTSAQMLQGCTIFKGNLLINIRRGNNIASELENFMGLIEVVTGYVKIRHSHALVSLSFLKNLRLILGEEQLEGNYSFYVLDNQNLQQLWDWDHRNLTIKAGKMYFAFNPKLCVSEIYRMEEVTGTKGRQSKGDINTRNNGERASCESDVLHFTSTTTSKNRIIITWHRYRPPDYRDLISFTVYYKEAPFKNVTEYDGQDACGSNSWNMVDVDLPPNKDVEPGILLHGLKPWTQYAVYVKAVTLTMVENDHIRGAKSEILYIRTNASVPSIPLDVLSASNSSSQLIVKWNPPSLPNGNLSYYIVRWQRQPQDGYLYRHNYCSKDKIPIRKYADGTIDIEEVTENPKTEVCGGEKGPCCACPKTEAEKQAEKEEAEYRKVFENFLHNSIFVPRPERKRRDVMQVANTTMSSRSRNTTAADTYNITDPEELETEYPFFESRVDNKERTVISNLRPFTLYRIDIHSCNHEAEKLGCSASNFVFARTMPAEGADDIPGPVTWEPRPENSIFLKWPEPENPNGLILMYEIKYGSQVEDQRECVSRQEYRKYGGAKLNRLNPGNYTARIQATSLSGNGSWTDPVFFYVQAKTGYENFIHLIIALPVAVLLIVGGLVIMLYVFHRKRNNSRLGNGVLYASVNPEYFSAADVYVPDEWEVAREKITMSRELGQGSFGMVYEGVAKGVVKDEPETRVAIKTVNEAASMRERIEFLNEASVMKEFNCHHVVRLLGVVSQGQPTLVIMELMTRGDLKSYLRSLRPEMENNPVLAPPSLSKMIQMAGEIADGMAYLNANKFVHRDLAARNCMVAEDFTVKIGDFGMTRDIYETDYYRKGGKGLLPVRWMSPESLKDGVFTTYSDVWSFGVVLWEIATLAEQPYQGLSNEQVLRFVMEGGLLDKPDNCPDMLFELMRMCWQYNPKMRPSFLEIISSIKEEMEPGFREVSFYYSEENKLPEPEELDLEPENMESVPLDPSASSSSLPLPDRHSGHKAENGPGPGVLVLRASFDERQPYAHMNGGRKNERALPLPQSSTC

On to `COc1cccc2c1C(=O)c1c(O)c3c(c(O)c1C2=O)C[C@@](O)(C(=O)CO)C[C@@H]3O[C@H]1C[C@H](N)[C@H](O)[C@H](C)O1` [doxorubicin, reference compound], for which the “downstream signaling at the level of pERK following treatment” value in assay [1] (setting [20]) is recorded as “increased phosphorylation of downstream signaling at the level of pERK”. In addition, the “phosphorylation of IR and IGF-1R following treatment” value in [2] (setting [20]) is “upregulated phosphorylation of both IR and IGF-1R”.

As for `C[C@]1(O)C[C@@H](c2nc(-c3ccc4ccc(-c5ccccc5)nc4c3)c3c(N)nccn32)C1` [OSI-906, cis-3-[8-amino-1-(2-phenyl-quinolin-7-yl)-imidazo[1,5-a]pyrazin-3-yl]-1-methyl-cyclobutanol], in [3] (H322, H295R, and A673 cells), the “decrease of phospho-AKT or phospho-ERK levels” value was “to a greater extent than did MAB391”. Moreover, the “effect on phospho-AKT levels” value in assay [3] (SK-N-AS (neuroblastoma) tumor cells) was “decrease phospho-AKT levels”. The “mean TGI over the dosing period” value in [4] stood at 79%. The “mean tumor growth inhibition (TGI) over the dosing period” value in [5] (OSI-906 50 mg/kg once-daily for 14 days, MAB391 1 mg every three days intraperitoneally) is recorded as 100%. Moreover, the “% TGI” value in assay [5] (after treatment with OSI-906 in vivo for 10-14 days) is reported as 71%; in assay [9], under 30%; in assay [10] it was 90%; in assay [11], under 30%; in assay [12], 85%; in assay [13] it was 56%. Further, the “effect on phospho-AKT in tumors” value in assay [6] is given as “decreased phospho-AKT in tumors”. The “inhibition of phospho-AKT” value in assay [7] is listed as “fully inhibited”. In addition, the “inhibition of phosphorylation of IRS1^Y612” value in [8] is on record as “strongly inhibited”. Further, the “inhibition of IGF-1R phosphorylation” value in [14] is “fully inhibited”. The “effect on phospho-PRAS40” value in assay [15] is on record as “decreased phospho-PRAS40”. For the same molecule, the “inhibition of pERK” value in [1] (A673 tumor cells treated with doxorubicin (300 nM), compared with MAB391) was “greater inhibition of pERK”. Moreover, the “inhibition of phospho-IGF-1R” value in assay [16] is “fully inhibited”. Further, the “decrease of phospho-IGF-1R” value in [17] is on record as over 90%. In addition, the “sensitivity to OSI-906 in vitro” value in assay [18] was “sensitive”. For the same molecule, the inhibition in assay [19] is recorded as under 50%. Further, the “inhibition of IR and IGF-1R phosphorylation” value in assay [2] (A673 tumor cells treated with doxorubicin (300 nM)) was “inhibits both IR and IGF-1R”.

Broadly, the inhibition is the relative decrease from the control value, in per cent.

Values taken from patent publication US20110275644A1, “BIOLOGICAL MARKERS PREDICTIVE OF ANTI-CANCER RESPONSE TO INSULIN-LIKE GROWTH FACTOR-1 RECEPTOR KINASE INHIBITORS” (priority 2010, published 2011).
